According to US8956824B2, “Methods for identifying allosteric modulators of ship polypeptides” (British Columbia Cancer Agency Branch, priority 2006, dated 2015):
“Also recorded” adds a separate entry of the source.

How the values were obtained:
[1] = biological target: T1, SHIP1 C2 domain (Mus musculus, UniProt Q9ES52); test: Protein lipid overlay assay, C2 domain; type: binding; conditions: 200 μM AQX-MN100, 30 min pre-incubation
T1 construct: Recombinant SHIP1 C2 domain (amino acid residues 725 to 863); made in house; host or cells: E. coli, pET28C
T1 sequence (Q9ES52 725-863): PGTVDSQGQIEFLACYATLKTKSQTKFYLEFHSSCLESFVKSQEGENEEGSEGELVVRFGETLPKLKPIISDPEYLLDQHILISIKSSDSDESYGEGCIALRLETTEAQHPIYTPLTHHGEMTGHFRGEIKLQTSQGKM
Method: Protein Lipid Overlay Assays Protein Lipid Overlay assays were performed essentially as described (23) with minor modifications. Lyophilized phosphatidylinositol-3,4-bisphosphate diC16 (PIP2, Echelon Biosciences, Salt Lake City, Utah) was reconstituted in a 2:1.8 solution of methanol and water. PVDF membranes (Millipore, Missisauga, Ont) were initially wetted in methanol for 1 minute, and washed 3×5 min with water, and gently agitated in TBST buffer (20 mM Tris pH 7.5, 0.15 M NaCl (TBS) with 0.05% Tween 20) at 23° C. overnight. The treated membranes were air-dried and dilutions of reconstituted lipids were spotted in 1 μl aliquots to give the indicated amount of PIP2 per membrane spot. The membranes were dried completely and blocked with blocking buffer (3% BSA in TBS with 0.05% NaN3) for 1 h at 23° C. on a gentle shaker. Purified, recombinant C2 domain was diluted into blocking buffer (5 μM final) and treated with 200 μM AQX-MN100 or EtOH control for 30 min at 23° C. prior to overnight incubation with the PIP2 spotted membranes. The membranes were washed 10 times over 50 min in TBST buffer at 23° C. and were incubated with anti-His6 mouse IgG (Qiagen, Missisauga, Ont) for 1 hour at 23° C. with gentle rocking. […] The membranes were washed 3 times in TBST over 15 min at 23° C. and the bound proteins were detected and quantified on a Li-Cor Odyssey scanner (Lincoln, Nebr.). […]

[2] = biological target: T2, SHIP2 enzyme (Homo sapiens, UniProt O15357); test: In vitro SHIP enzyme assay, SHIP2; type: biochemical; conditions: FIG. 1B
T2 construct: purchased Echelon Biosciences (Salt Lake City, Utah)
T2 sequence (O15357 1-1258): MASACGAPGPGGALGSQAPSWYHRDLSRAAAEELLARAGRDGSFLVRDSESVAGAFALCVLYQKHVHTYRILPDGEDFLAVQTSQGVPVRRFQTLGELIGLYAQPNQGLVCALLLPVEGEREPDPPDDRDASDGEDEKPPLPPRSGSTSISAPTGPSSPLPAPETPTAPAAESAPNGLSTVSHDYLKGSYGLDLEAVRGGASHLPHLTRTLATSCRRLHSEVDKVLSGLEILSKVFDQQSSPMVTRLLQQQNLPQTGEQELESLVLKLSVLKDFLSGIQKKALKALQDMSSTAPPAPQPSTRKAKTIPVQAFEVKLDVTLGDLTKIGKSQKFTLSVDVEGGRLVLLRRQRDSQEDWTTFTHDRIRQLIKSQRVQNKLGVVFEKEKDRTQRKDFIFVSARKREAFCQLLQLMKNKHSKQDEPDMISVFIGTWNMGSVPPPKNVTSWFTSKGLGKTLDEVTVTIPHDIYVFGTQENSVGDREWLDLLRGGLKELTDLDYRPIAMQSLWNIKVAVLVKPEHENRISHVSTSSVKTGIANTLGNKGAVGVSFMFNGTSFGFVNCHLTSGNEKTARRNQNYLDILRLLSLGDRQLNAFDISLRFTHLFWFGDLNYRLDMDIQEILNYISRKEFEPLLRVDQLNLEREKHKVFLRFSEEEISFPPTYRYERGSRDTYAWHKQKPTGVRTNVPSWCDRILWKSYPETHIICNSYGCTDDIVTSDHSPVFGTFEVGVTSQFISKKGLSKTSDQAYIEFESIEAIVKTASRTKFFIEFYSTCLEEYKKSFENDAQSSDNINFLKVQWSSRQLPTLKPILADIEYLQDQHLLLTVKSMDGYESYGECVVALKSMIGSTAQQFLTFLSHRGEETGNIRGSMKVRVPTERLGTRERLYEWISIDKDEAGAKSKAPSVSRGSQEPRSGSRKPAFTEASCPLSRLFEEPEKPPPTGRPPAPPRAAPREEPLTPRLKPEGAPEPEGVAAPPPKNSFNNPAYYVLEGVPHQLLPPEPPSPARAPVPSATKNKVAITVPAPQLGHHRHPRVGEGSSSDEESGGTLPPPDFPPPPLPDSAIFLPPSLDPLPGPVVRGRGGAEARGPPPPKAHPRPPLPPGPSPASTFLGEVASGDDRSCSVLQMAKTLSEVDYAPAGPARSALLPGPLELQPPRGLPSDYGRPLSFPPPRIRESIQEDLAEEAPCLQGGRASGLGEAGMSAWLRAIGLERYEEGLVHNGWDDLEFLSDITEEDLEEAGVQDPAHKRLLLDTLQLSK
Method: In vitro SHIP enzyme assay. The SHIP enzyme assay was performed in 96-well microtitre plates with 10 ng of enzyme/well in a total volume of 25 μL of 20 mM Tris HCl, pH 7.5 and 10 mM MgCl2. SHIP1 enzyme was incubated with test extracts (provided in DMSO) or vehicle for 15 mM at 23° C. before the addition of 100 μM inositol-1,3,4,5-tetrakisphosphate (Echelon Biosciences Inc, Salt Lake City, Utah). The reaction was allowed to proceed for 20 min at 37° C. and the amount of inorganic phosphate released assessed by the addition of Malachite Green reagent followed by an absorbance measurement at 650 nm (15). SHIP2 enzyme was purchased from Echelon Biosciences (Salt Lake City, Utah) and an equivalent amount of inositol phosphatase activity was used in the in vitro enzyme assay. Enzyme data are expressed as the mean of triplicates+/−SEM. Experiments were performed at least 3 times.

SMILES	inhibition of C2 domain binding to phosphatidylinositol lipid (PI-3,4-P2 / PIP3) [1]	activation of SHIP1 versus SHIP2 [2]
Cc1cc(O)cc2c1[C@]1(C)CC[C@H]3C(C)(C)CCC[C@]3(C)[C@H]1C2 [AQX-MN100]	could compete with PI-3,4-P2 for binding; also recorded: inhibits the binding of the C2; also recorded: is inhibited	
Cc1cc(O)c(O)c2c1[C@]1(C)CC[C@H]3C(C)(C)CCC[C@]3(C)[C@H]1C2 [AQX-016A]		preferentially activates SHIP1 over SHIP2
